Where two headings read alike, the source gives them in different places.

Series [1] relates to A549 human lung cells expressing low Bcl-2 and high Bcl-XL levels. Briefly: Acute cytotoxicity (apoptotic activity), Alamar Blue viability, A549 cells. The class given is cell-based. On the procedure:
(§1) The biological activity of the compounds provided herein were assessed in cellular system by the method similar to the one described by Amundson et al. (Amundson, S. A. et al, Cancer Research 2000, 60, 6101-6110), which is incorporated herein by reference in its entirety. The compounds were tested for acute cytotoxicity (apoptotic activity) using two human cancer cell lines expressing high levels of either Bcl-2 or BCl-XL. HL60, human leukemic cells expressing high Bcl-2 and low BCl-XL levels, and A549 human lung cells expressing low Bcl-2 and high BCl-XL levels, were incubated with the compounds at concentrations between 0.5 and 1000 μg/mL for 4 hours at 37° C., 5% CO2. The number of viable cells were measured by mitochondrial transformation of Alamar Blue to a fluorescent dye. LC50 values for each test compound and controls are provided in the individual examples that follow.
(§2) The compounds provided herein were tested for acute cytoxicity (apoptotic activity) using two human cancer cell lines expressing high levels of either Bcl-2 or BCl-XL. HL-60 cells expressing high Bcl-2 and low Bcl-XL levels, and A549 human lung cells expressing low Bcl-2 and high Bcl-XL levels were incubated with the compounds provided herein at concentrations between 0.5 and 1000 μg/mL for 4 hours at 37° C., 5% CO2. The number of viable cells were measured by mitochondrial transformation of Alamar Blue to a fluorescent dye. As negative controls, the compounds were tested against the cell lines with low levels of Bcl-2 expression, viz., MDA-453 cells. LC50 values for each compound and controls were determined.

The test system of series [2] is HL60, human leukemic cells expressing high Bcl-2 and low Bcl-XL levels. Briefly: Acute cytotoxicity (apoptotic activity), Alamar Blue viability, HL-60 cells. The class given is cell-based. How it is done:
as §1, §2

Setting [3] is: Homo sapiens, A549; 4 hours at 37° C.; read-out: LC50 value in A549 cell lines.
[4] abbreviates: Homo sapiens, HL-60; 4 hours at 37° C.; read-out: LC50 value in HL-60 cell lines.
[5] abbreviates: Homo sapiens, A549, 4 h; read-out: LC 50 (μM) A549.
Setting [6] is: Homo sapiens, HL-60, 4 h; read-out: LC 50 (μM) HL-60.

For `O=S(=O)(c1ccccc1)c1ccc(S(=O)(=O)c2ccccc2)[n+]([O-])n1` [Example 1, 3,6-bis(benzenesulfonyl)pyridazine-1-oxide], the results for the CC50 in series [1] (setting [3]) and in series [2] (setting [4]) were 268 µM and 20.5 µM, respectively.
As for `[O-][n+]1nc(Oc2ccccc2)ccc1Oc1ccccc1` [Example 2, 3,6-diphenoxvpyridazine-1-oxide], the CC50 in series [1] (4 hours at 37° C.; read-out: LC50 value in A549 cell lines) and in series [2] (4 hours at 37° C.; read-out: LC50 value in HL-60 cell lines) was over 500 µM throughout.
On to `O=S(=O)(c1ccc(S(=O)(=O)C2CCCCC2)[n+]([O-])n1)C1CCCCC1` [Example 3, 3,6-bis-cyclohexanesulfonyl-pyridazine-1-oxide], for which the CC50 amounted to 192 µM in series [1] (setting [3]) and 32.3 µM in series [2] (setting [4]).
Regarding `O=S(=O)(c1ccc(Cl)n[n+]1[O-])C1CCCCC1` [Example 4, 3-chloro-6-cyclohexanesulfonyl-pyridazine-1-oxide], the figures for the CC50 in series [1] (setting [3]) and in series [2] (setting [4]) were 188 µM and 20.2 µM, respectively.
Regarding `O=S(=O)(c1ccccc1)c1ccc(S(=O)(=O)C2CCCCC2)[n+]([O-])n1` [Example 5, 3-benzenesulfonyl-6-cyclohexanesulfonyl-pyridazine-1-oxide], the CC50 in series [1] (setting [3]) came out at 279 µM; in series [2] (setting [4]), 32.9 µM.
Regarding `Clc1ccc(Cl)nn1` [compound 1], the CC50 in series [1] (setting [5]) and in series [2] (setting [6]) was over 200 µM in each case.
Turning to `[O-][n+]1nc(Cl)ccc1Cl` [compound 2], the values for the CC50 in series [1] (setting [5]) and in series [2] (setting [6]) were over 200 µM and under 50 µM, respectively.
The like results for `COc1ccc(Cl)[n+]([O-])n1` [compound 3] were, in that order, over 200 µM and over 200 µM.
The like results for `[O-][n+]1nc(Oc2ccccc2)ccc1Oc1ccccc1` [compound 4] were, in that order, over 200 µM and over 200 µM.
With `[O-][n+]1nc(Sc2ccccc2)ccc1Sc1ccccc1` [compound 5], the CC50 in series [2] (setting [6]) was over 200 µM.
`[O-][n+]1nc(Sc2ccccn2)ccc1Sc1ccccn1` [compound 7, reference compound]: the CC50 in series [1] (setting [5]) and in series [2] (setting [6]) was over 200 µM throughout.
As for `O=[N+]([O-])c1ccc(Sc2ccc(Sc3ccc([N+](=O)[O-])cc3)nn2)cc1` [compound 9], the CC50 in series [1] (Homo sapiens, A549, 4 h, read-out: LC 50 (μM) A549) is over 200 µM; in series [2] (Homo sapiens, HL-60, 4 h, read-out: LC 50 (μM) HL-60), over 200 µM.
Consider `COc1ccc(Sc2ccc(Sc3ccc(OC)cc3)[n+]([O-])n2)cc1` [compound 10], for which the CC50 in series [1] (setting [5]) and in series [2] (setting [6]) was over 200 µM throughout.
In the case of `CCS(=O)(=O)c1ccc(S(=O)(=O)CC)[n+]([O-])n1` [compound 12], the CC50 in series [1] (setting [5]) and in series [2] (setting [6]) was 50 to 200 µM each time.
Take `O=S(=O)(c1ccc(S(=O)(=O)C2CCCC2)[n+]([O-])n1)C1CCCC1` [compound 13]: the CC50 in series [1] (setting [5]) is over 200 µM; in series [2] (setting [6]), under 50 µM.
The like results for `O=S(=O)(Cc1ccccc1)c1ccc(S(=O)(=O)Cc2ccccc2)[n+]([O-])n1` [compound 14] were, in that order, over 200 µM and over 200 µM.
On the same counts, the results for `Cc1cc(Cl)[n+]([O-])nc1Cl` [compound 17] are over 200 µM and over 200 µM.
As for `Cc1cccc(S(=O)(=O)c2ccc(S(=O)(=O)c3cccc(C)c3)[n+]([O-])n2)c1` [compound 18], the CC50 in series [1] (setting [5]) and in series [2] (setting [6]) was over 200 µM throughout.
For `Cc1ccccc1S(=O)(=O)c1ccc(S(=O)(=O)c2ccccc2C)[n+]([O-])n1` [compound 19], the CC50 in series [1] (setting [5]) was over 200 µM; in series [2] (setting [6]) it was 50 to 200 µM.
On the same counts, the results for `O=S(=O)(c1ccc(S(=O)(=O)C2CCCCC2)[n+]([O-])n1)C1CCCCC1` [compound 20] are over 200 µM and under 50 µM.
On the same counts, the results for `COc1cccc(S(=O)(=O)c2ccc(S(=O)(=O)c3cccc(OC)c3)[n+]([O-])n2)c1` [compound 21] are over 200 µM and over 200 µM.
Take `COc1ccccc1S(=O)(=O)c1ccc(S(=O)(=O)c2ccccc2OC)[n+]([O-])n1` [compound 22]: the CC50 in series [1] (setting [5]) was over 200 µM; in series [2] (setting [6]), under 50 µM.
As to `[O-][n+]1nc(Sc2ccccc2)ccc1Sc1ccccc1` [pyridazine, 3,6-bis(phenylthio)-, 1-oxide], the CC50 in series [2] (setting [4]) came to 58.9 µM.

For the origin of these results see patent publication US20040242886A1, “Monocyclic diazodioxide based Bcl-2 protein antagonists related applications” (priority 2003, published 2004).
